Laboratory results: article PMC10065799, “High-throughput profiling of sequence recognition by tyrosine kinases and SH2 domains using bacterial peptide display” (eLife, 2023)

Biological target: T1, c-Abl kinase domain (Mus musculus, UniProt P00520)
T1 sequence (P00520 242-493 limits assumed): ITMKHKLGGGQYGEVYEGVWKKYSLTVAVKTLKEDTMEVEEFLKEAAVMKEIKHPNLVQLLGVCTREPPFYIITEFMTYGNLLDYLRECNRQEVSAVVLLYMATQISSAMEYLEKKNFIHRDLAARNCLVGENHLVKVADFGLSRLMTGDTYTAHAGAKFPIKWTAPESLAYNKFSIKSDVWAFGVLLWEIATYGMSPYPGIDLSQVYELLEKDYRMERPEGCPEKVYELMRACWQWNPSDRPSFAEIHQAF
Assay: pTyr-Var library bacterial peptide display kinase screen (enrichment scores)
Type: biochemical
Settings: variant versus reference peptide

Sequence: GMAHNYRNRSQ [AASS_Y188_S191R]
- c-Abl difference (mean log2 variant - mean log2 reference): 0.7958
